# Assay results from patent publication US10421782B2, “Cyclic cationic peptides with antimicrobial activity” (I.C.F. S.R.L., priority 2012, dated 2019).
# Several values for one entry are separate records, joined by “and”; a condition that tells them apart may be missing. Equal entries are not always repeated. Where two headings read alike, the source gives them in different places. Where a SMILES comes first, the peptide text is derived from it. Bridges are numbered along the chain shown (N, C = ends).
# Key:
# [1] = test system: E. coli ML-35pYC; experiment: Membrane permeabilization assay (CENTA / ONPG kinetics); format: cell-based, Escherichia coli; details: CENTA substrate (periplasmic beta-lactamase); peptide 12.5 μg/ml; logistic 4-parameter fit; read up to 240 min
# Experimental: The strain ML-35pYC of E. coli was used to assay the kinetics of membrane permeabilization performed by the peptides of the invention. This bacterial strain expresses resistance to ampicillin, constitutive expression of cytoplasmic beta-galactosidase, and is engineered with a plasmid for the synthesis of a periplasmic beta-lactamase. Sixty microliters (60 μl) of bacterial suspension of strain ML-35pYC of E. coli were added to 60 μl of a 15 mM solution of ONPG or 1.5 mM of CENTA in phosphate buffer. Subsequently, 120 μl of the test peptides were added to obtain a final concentration of 12.5 μg/ml. The kinetics of the reaction was evaluated by recording the value of absorbance at […] and 405 nm, for ONPG and CENTA respectively, every 10 min up to a maximum of 240 min.
# By “fitting” the experimental points with the logistic 4-parameter curve, it was possible to determine the inflexion point, that is the point where the curve changes direction, relative to the 3 test peptides. No inflexion point was observed during the assay with CENTA (inflexion point higher than 500 min).
# [2] = test system: Candida albicans ATCC 10231; experiment: Broth-microdilution test and subsequent plating on agar, fungi (yeasts); format: cell-based; details: 2 h contact at 37° C., CFU count on agar Sabouraud
# Experimental: (§1) The inoculum was set up by culturing Candida albicans ATCC 10231 and Malassezia pachydermatis ATCC 14522 in Czapek-Dox broth medium (DIFCO) for 48-72 h. On the assay day, the fungal culture was centrifuged at 1700×g for 15 min, the pellet was resuspended in phosphate buffer and submitted to shaking by the use of an electric vortex to disperse the fungal cell aggregates. The suspension was diluted until an optical density equal to an opacity of 0.5 on the McFarland turbidimetric scale was reached, which contains approximately 1-5×10^6 cell/ml (Branda J. A., Krantz A. Effectc of yeast on automated cell counting. Am J Clin Pathol., 2006:126, 248-254).
# (§2) The peptides were tested for their ability to inhibit fungal growth. Fifty microliters of peptide at a concentration comprised between about 0.2 mM and about 50 mM were added in 96-well U-bottom plates containing phosphate buffer and one of the following fungi: Candida albicans ATCC 10231 and Malassezia pachydermatis ATCC 14522. After 2 h incubation at 37° C., fungi were transferred on the solid medium agar Sabouraud. As a control, fungal cultures were cultured in the absence of peptide.
# (§3) The fungal suspension was put in contact for two hours with different concentrations of the peptide at the temperature of 37° C. After incubation, 20 μl were drawn from the wells of each dilution and seeded on the solid medium agar Sabouraud. The inoculum was evenly distributed on the agarized medium by means of a sterile disposable loop. After incubation for 24 h at the temperature of 37° C., counting of the fungal colonies (CFU) was performed.
# [3] = test system: Malassezia pachydermatis ATCC 14522; experiment: as above; format: cell-based; details: 2 h contact at 37° C., CFU count on agar Sabouraud
# Experimental: as §1, §2, §3
# [4] = test system: Stenotrophomonas maltophilia ATCC 13637; experiment: Broth-microdilution test and subsequent plating on agar, Gram-negative bacteria; format: cell-based; details: 2 h contact at 37° C., CFU count after 24 h
# Experimental: (§4) For each bacterial strain, 3-5 morphologically similar colonies were drawn from fresh cultures, inoculated in Brain Hearth Infusion broth liquid medium and incubated at the temperature of 37° C. under shaking at 225 r.p.m. for 3-4 h. Subsequently, the bacterial suspension was centrifuged at 1000 g for 20 min and the thus obtained pellet was resuspended in phosphate buffer 10 mM. Turbidity was measured in a spectrophotometer with absorbance at 600 nm, equivalent in the range 0.08-0.13 to a concentration of about 10^8 CFU/ml. The bacterial suspension was diluted 1:100 in phosphate buffer 10 mM, and within 30 min 50 microliters of such bacterial suspension (10^6 CFU/ml) were inoculated in each well of the microtiter plate, to obtain a final bacterial concentration of about 5×10^5 CFU/ml.
# (§5) Several peptides were tested for their ability to inhibit bacterial growth in liquid culture. Fifty microliters of peptide at a concentration comprised between about 0.2 mM and 50 mM were added in 96-well U-bottom plates containing liquid growth medium and one of the following bacteria: Escherichia coli ATCC 25922, P. aeruginosa ATCC 27853, Stenotrophomonas maltophilia ATCC 13637. After 2 hour incubation at 37° C., bacteria were transferred on a solid medium. As a growth control, bacterial cultures were cultured in the absence of peptides.
# (§6) The bacterial suspension was put in contact for two hours with different concentrations of the peptide at the temperature of 37° C. After incubation, 20 μl were drawn from the wells of each dilution and seeded on solid medium, agar McConkey. The inoculum was evenly distributed on the agarized medium by means of a sterile disposable loop. After incubation for 24 h at the temperature of 37° C., counting of the bacterial colonies (CFU) was performed.
# [5] = test system: S. aureus ATCC 25923; experiment: Broth-microdilution test and subsequent plating on agar, Gram-positive bacteria; format: cell-based, Staphylococcus aureus; details: meticillin-sensitive, 2 h contact at 37° C., CFU count after 24 h
# Experimental: as §4, with “30 min,” for “30 min”
# (§7) Several synthetic peptides were tested for their ability to inhibit bacterial growth. Fifty microliters of peptide at a concentration comprised between about 0.2 mM and about 50 mM were added to 96-well U-bottom plates containing phosphate buffer and one of the following bacteria: S. aureus ATCC 25923, meticillin-resistant S. aureus ATCC 43300. After 2 hour incubation at 37° C., bacteria were transferred on a solid medium. As a control, the bacterial cultures were cultured in the absence of peptide.
# as §6, with “medium, Columbia” for “medium,”, “agar supplemented with 5% bovine red blood cells for Gram-positive bacteria.” for “agar McConkey.”, “24 hours” for “24 h”
# [6] = test system: meticillin-resistant S. aureus ATCC 43300; experiment: as above; format: cell-based, Staphylococcus aureus; details: 2 h contact at 37° C., CFU count after 24 h
# Experimental: as §4, with “30 min,” for “30 min”
# as §7
# as §6, with “medium, Columbia” for “medium,”, “agar supplemented with 5% bovine red blood cells for Gram-positive bacteria.” for “agar McConkey.”, “24 hours” for “24 h”
# [7] = test system: Pseudomonas aeruginosa ATCC 27853; format: cell-based; details: for LD90 P. aeruginosa ATCC 27853: 2 h contact at 37° C., CFU count after 24 h
# Experimental: as §4, §5, §6
# [8] = test system: Escherichia coli ATCC 25922; format: cell-based; details: for LD90 E. coli ATCC 25922: 2 h contact at 37° C., CFU count after 24 h
# Experimental: as §4, §5, §6
# [9] = further tests, test of Table 2a
compound,measurement,setting,value
"CC[C@H](C)[C@@H]1NC(=O)[C@H](Cc2ccccc2)NC(=O)[C@H](CCCCN)NC(=O)[C@H](C(C)C)NC(=O)CNC(=O)[C@H](CCCNC(=N)N)NC(=O)[C@H](Cc2c[nH]c3ccccc23)NC(=O)[C@H](CCC(N)=O)NC(=O)[C@H](Cc2c[nH]c3ccccc23)NC(=O)[C@H](CCCCN)NC(=O)[C@H](CCCNC(=N)N)NC(=O)[C@@H](NC(=O)[C@H](Cc2c[nH]c3ccccc23)NC(=O)[C@@H](N)CCCCN)CSSC[C@@H](C(=O)N[C@H](C(=O)O)C(C)C)NC(=O)[C@H](CCCCN)NC1=O (relative stereo) [Peptide P126, LYS*TRP*CYS*ARG*LYS*TRP*GLN*TRP*ARG*GLY*VAL*LYS*PHE*ILE*LYS*CYS*VAL]",Inflexion point CENTA,[1],>500 min
same,LD90 Candida albicans,[2],1.98 µM
same,LD90 Candida albicans,[2]; listed as 126,about 2 μM
same,LD90 Malassezia pachydermatis,[3],0.75 µM
same,LD90 S. maltophilia ATCC 13637,[4],6.65 µM
same,LD90 S. aureus ATCC 25923,[5],4.68 µM
same,LD90 S. aureus ATCC 25923,[5]; listed as 126,4.68 μM and 9.54 μg/ml
same,LD90 MRSA ATCC 43300,[6],>70 µM
same,LD90 MRSA ATCC 43300,[6]; listed as 126,about 71 μM and ~100 μg/ml
same,LD90 P. aeruginosa ATCC 27853,[7],0.20 µM
same,LD90 P. aeruginosa ATCC 27853,[7]; listed as 126,0.20 μM and 0.4 μg/ml
same,MBC P. aeruginosa ATCC 27853,[7]; ATCC 27853,4.53 µg/mL
same,LD90 E. coli ATCC 25922,[8],0.91 µM
same,LD90 E. coli ATCC 25922,[8]; listed as 126,1.86 μg/ml and 0.91 μM
same,MBC E. coli ATCC 25922,[8]; ATCC 25922,12.5 µg/mL
"CC(C)C[C@H](NC(=O)[C@@H]1CSSC[C@H](NC(=O)CNC(=O)[C@@H](N)CCCNC(=N)N)C(=O)N[C@@H](Cc2c[nH]c3ccccc23)C(=O)N[C@@H](CCCNC(=N)N)C(=O)N[C@@H](Cc2c[nH]c3ccccc23)C(=O)N[C@@H](CCCCN)C(=O)N[C@@H](Cc2c[nH]c3ccccc23)C(=O)N[C@@H](CCCNC(=N)N)C(=O)NCC(=O)N[C@@H](C(C)C)C(=O)N[C@@H](Cc2c[nH]c3ccccc23)C(=O)N[C@@H](Cc2ccc(O)cc2)C(=O)N[C@@H](CCCCN)C(=O)N[C@@H](CCCCN)C(=O)N1)C(=O)O [SEQ.ID.NO.: 7, Arg*Gly*Cys*Trp*Arg*Trp*Lys*Trp*Arg*Gly*Val*Trp*Tyr*Lys*Lys*Cys*Leu*] (H-RGCWRWKWRGVWYKKCL-OH; disulfide 3-16; N-terminus and C-terminus assumed)",MBC P. aeruginosa ATCC 27853,[7]; ATCC 27853,3.4 µg/mL
same,MBC E. coli ATCC 25922,[8]; ATCC 25922,7.81 µg/mL
"FFCGNKRWRGNYQGSCK [Peptide P127, reference compound]",MBC P. aeruginosa ATCC 27853,[7]; [9],inactive
same,MBC E. coli ATCC 25922,[8]; [9],inactive
"CC[C@H](C)[C@@H]1NC(=O)CNC(=O)[C@H](CCCNC(=N)N)NC(=O)[C@H](Cc2c[nH]c3ccccc23)NC(=O)[C@H](CCCCN)NC(=O)[C@H](Cc2c[nH]c3ccccc23)NC(=O)[C@H](CCCCN)NC(=O)[C@H](CC(C)C)NC(=O)[C@@H](NC(=O)[C@H](CC(N)=O)NC(=O)[C@@H](N)CCCCN)CSSC[C@@H](C(=O)N[C@@H](CC(C)C)C(=O)O)NC(=O)[C@H](CCCCN)NC(=O)[C@H](CCCNC(=N)N)NC(=O)[C@H](Cc2ccc(O)cc2)NC(=O)[C@H]([C@@H](C)O)NC1=O [SEQ.ID.NO.: 9, Lys*Asn*Cys*Leu*Lys*Trp*Lys*Trp*Arg*Gly*Ile*Thr*Tyr*Arg*Lys*Cys*Leu*] (H-KNCLKWKWRGITYRKCL-OH; disulfide 3-16; N-terminus and C-terminus assumed)",MBC P. aeruginosa ATCC 27853,[7]; ATCC 27853,2.57 µg/mL
same,MBC E. coli ATCC 25922,[8]; ATCC 25922,7.56 µg/mL
"N=C(N)NCCC[C@@H]1NC(=O)[C@H](Cc2ccccc2)NC(=O)[C@H](CCCNC(=N)N)NC(=O)[C@H](Cc2ccc(O)cc2)NC(=O)[C@@H]2CCCN2C(=O)[C@H](Cc2ccccc2)NC(=O)[C@@H](NC(=O)[C@H](CCCCN)NC(=O)[C@@H](N)CCCNC(=N)N)CSSC[C@@H](C(=O)N[C@@H](Cc2ccc(O)cc2)C(=O)O)NC(=O)[C@H](CCCCN)NC(=O)[C@H](CCCCN)NC(=O)[C@H](Cc2ccccc2)NC(=O)[C@H](CCCNC(=N)N)NC(=O)[C@H](CCCCN)NC(=O)CNC1=O [SEQ.ID.NO.: 5, Arg*Lys*Cys*Phe*Pro*Tyr*Arg*Phe*Arg*Gly*Lys*Arg*Phe*Lys*Lys*Cys*Tyr*] (H-RKCFPYRFRGKRFKKCY-OH; disulfide 3-16; N-terminus and C-terminus assumed)",MBC P. aeruginosa ATCC 27853,[7]; ATCC 27853,1.09 µg/mL
same,MBC E. coli ATCC 25922,[8]; ATCC 25922,1.08 µg/mL
"CC(C)C[C@H](NC(=O)[C@@H]1CSSC[C@H](NC(=O)[C@H](CCCCN)NC(=O)CN)C(=O)N[C@@H](Cc2c[nH]c3ccccc23)C(=O)N[C@@H](CCCCN)C(=O)N[C@@H](Cc2c[nH]c3ccccc23)C(=O)N[C@@H](CCCCN)C(=O)N[C@@H](Cc2ccc(O)cc2)C(=O)N[C@@H](CCCNC(=N)N)C(=O)NCC(=O)N[C@@H](Cc2c[nH]cn2)C(=O)N[C@@H](Cc2ccc(O)cc2)C(=O)N[C@@H](Cc2c[nH]c3ccccc23)C(=O)N[C@@H](CCCNC(=N)N)C(=O)N[C@@H]([C@@H](C)O)C(=O)N1)C(=O)O [SEQ.ID.NO.: 8, Gly*Lys*Cys*Trp*Lys*Trp*Lys*Tyr*Arg*Gly*His*Tyr*Trp*Arg*Thr*Cys*Leu*] (H-GKCWKWKYRGHYWRTCL-OH; disulfide 3-16; N-terminus and C-terminus assumed)",MBC P. aeruginosa ATCC 27853,[7]; ATCC 27853,1.81 µg/mL
same,MBC E. coli ATCC 25922,[8]; ATCC 25922,9.26 µg/mL
